Measurements: patent US5869500A, “Pyridone compounds useful in treating Alzheimer's disease” (Hoffmann-La Roche Inc., priority 1996, dated 1999)
Counter-ions that a name gives are not always drawn.

How the values were obtained:
[1] = tested on: Aβ production in HEK cells over-expressing mutated β-APP (SFAD); test: Aβ production inhibition, sandwich-ELISA in HEK cells, over-expressed mutated β-APP (SE-SFAD); type: cell-based, human; details: Homo sapiens, HEK293, HEK cells; for IC50: based on the respective plateau of maximum inhibition; for Emax: maximum inhibition plateau, read-out: SE-SFAD max. inhibition %
Method in brief: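 HEK cells expressing recombinant human wild-type or mutated (SFAD) β-APP treated with compound for 24 to 48 hours at 37° C, 10% CO2. IC50 based on plateau of maximum inhibition.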

[2] = tested on: Aβ production in HEK cells over-expressing Wild type β-APP; test: Aβ production inhibition, sandwich-ELISA in HEK cells which over-express Wild type β-APP (SE-WT); type: cell-based, human; details: Homo sapiens; for IC50: HEK293, based on the respective plateau of maximum inhibition; for Emax: HEK293, maximum inhibition plateau, read-out: SE-WT max. inhibition %
Protocol: The effect of test substances on the inhibition of Aβ-amyloid production can be measured in the supernatant of cell cultures of β-APP expressed cells using ELISA tests or other quantitative determination methods for β-APP degradation products. Typically, 8×10^5 cells (e.g. HEK cells, which express recombinant human β-APP variants) are plated out in each well of a culture dish having 24 wells in growth media such as e.g. OPTIMEM (Gibco) and the test compound is then added. After an incubation period of 24 to 48 hours at 37° C. in a 10% CO2 atmosphere the supernatant is removed from the cell cultures and the β-APP degradation products (e.g. Aβ or β-[…]) are determined with the aid of ELISA (or sandwich ELISA) analysis or by means of quantitative immunoprecipitation (after metabolic radiolabelling of the cell proteins). Typically, 300 μl of the cell supernatant are tested according to the state of the art for ELISA tests in culture dishes having 96 wells. In the case of sandwich ELISA for Aβ, the binding antibody can be directed against the first 16 amino acids of Aβ-peptide (e.g. 6E10 Senetek, Maryland Heights, Mo.) and the detection antibody can be directed against amino acids 17-40 or 17-42 of Aβ and carries a detection system such as e.g. peroxidase. A simple ELISA test with an antibody, e.g. 22C11 (Boehringer Mannheim), can be used as the test for […]; the second antibody can be an anti-(mouse) Ig having a detection system, such as e.g. peroxidase. The peroxidase reaction can be carried out e.g. using a TMB substrate (BioRAD) and the measurements can be carried out at 650 nm using an ELISA reading apparatus. […] SE-SFAD signifies the Aβ production inhibition measured using sandwich-ELISA in HEK cells, SFAD signifies over-expressed mutated β-APP, and SE-WT signifies the Aβ production inhibition measured using sandwich-ELISA in HEK cells which over-express Wild type β-APP. The IC50 values are based on the respective plateau of maximum inhibition.

Compound | IC50 [1] | Emax [1] | IC50 [2] | Emax [2]
COCC1CCCCN1C(=O)c1cc(-c2ccccc2)c(=O)n2ccc3ccsc3c12 (stereo not drawn) [Compound 50, 10-(2-Methoxymethyl-piperidine-1-carbonyl)-8-phenyl-thieno[2,3-a]-quinolizin-7-one] | 5.5 µM | 40% | 3.6 µM | 40%
CC(C)OC1CCN(C(=O)c2cc(-c3ccccc3)c(=O)n3ccc4ccsc4c23)C1 (stereo not drawn) [Compound 51, 10-(3-Isopropoxy-pyrrolidine-1-carbonyl)-8-phenyl-thieno[2,3-a]-quinolizin-7-one] | 60 µM | 100% | 24 µM | 100%
O=C(c1cc(-c2ccccc2)c(=O)n2ccc3ccsc3c12)n1ccnc1 [Compound 52, 10-(Imidazole-1-carbonyl)-8-phenyl-thieno[2,3-a]quinolizin-7-one] | 5 µM | 25% | 12 µM | 45%
CN(C)CCOC(=O)c1cc(-c2ccccc2)c(=O)n2ccc3ccsc3c12 [Compound 53, 2-Dimethylamino-ethyl 7-oxo-8-phenyl-7H-thieno[2,3-a]quinolizine-10-carboxylate hydrochloride] | 9.5 µM | 80% | 8 µM | 100%
CON(C)C(=O)c1cc(-c2ccccc2)c(=O)n2ccc3ccsc3c12 [Compound 54, 7--Oxo-8-phenyl-7H-thieno[2,3-a]quinolizine-10-carboxylic acid methoxy-methyl-amide] | 6 µM | 30% | 3 µM | 40%
O=C(OCc1cccs1)c1cc(-c2ccccc2)c(=O)n2ccc3ccsc3c12 [Compound 55, Thiophen-2-yl-methyl 7-oxo-8-phenyl-7H-thieno[2,3-a]quinolizine-10-carboxylate] | 4 µM | 50% | 5 µM | 60%
CC(=O)c1cc(-c2ccccc2)c(=O)n2ccc3ccsc3c12 [Compound 58, 10-Acetyl-8-phenyl-thieno[2,3-a]quinolizine-7-one] | 1 µM | 60% | 0.2 µM | 40%
CN(C)CC=CCOC(=O)c1cc(-c2ccccc2)c(=O)n2ccc3ccsc3c12 [Compound 59, 4-Dimethylamino-but-2-enyl 7-oxo-8-phenyl-7H-thieno[2,3-a]-quinolizine-10-carboxylate methanesulphonate] | 5 µM | 100% | 7 µM | 100%
O=c1c(-c2ccccc2)cc(-c2nc(C3CC3)no2)c2c3sccc3ccn12 [Compound 62, 10-(3-Cyclopropyl-[1,2,4]oxadiazol-5-yl)-8-phenyl-thieno[2,3-a]-quinolizin-7-one] | 0.5 µM | 65% | 2.7 µM | 80%
COC(=O)c1cc(-c2ccccc2)c(=O)n2c1-c1[nH]c3ccccc3c1CC2 [Compound 63, Methyl 4-oxo-3-phenyl-4,6,7,12-tetrahydro-indolo[2,3-a]quinolizine-1-carboxylate] | 1 µM | 65% | 0.6 µM | 45%
COCCN(CCOC)C(=O)c1cc(-c2ccc(OCc3ccccc3)cc2)c(=O)n2ccc3ccsc3c12 [Compound 67, 8-(4-Benzyloxy-phenyl)-7-oxo-7H-thieno[2,3-a]quinolizine-10-carboxylic acid bis-(2-methoxy-ethyl)-amide] | 0.8 µM | 70% | 0.6 µM | 80%
COCCN(C(=O)c1cc(-c2ccc(OCc3ccccc3)cc2)c(=O)n2ccc3cc(Br)sc3c12)c1ccccc1 [Compound 77, 8-(4-Benzyloxy-phenyl)-2-bromo-7-oxo-7H-thieno[2,3-a]quinolizine-10-carboxylic acid (2-methoxy-ethyl)-phenyl-amide] | 0.2 µM | 80% | 0.2 µM | 100%
